Experimental data published in patent publication US20260191863A1, “PYRROLOPYRIMIDINE COMPOSITIONS FOR TREATMENT OF ITK MEDIATED CONDITIONS” (ACLARIS THERAPEUTICS, INC., priority 2022, published 2026).
Like-named read-outs stand apart in the source and are kept apart here.

Assay: Phase 1 multiple ascending dose (MAD) study: pharmacokinetics
Type: in vivo, human
Conditions: plasma, oral; for AUC(0-t): read-out: Geometric Mean AUC_0-12; for Tmax: read-out: Geometric Mean Tmax; for AUC(0-inf): read-out: Geometric Mean AUCINF_obs; for AUC: read-out: AUC0-τ
From the text: Secondary Endpoints—Compound I plasma concentrations and PK parameters: AUC0-tau, AUC0-inf, Ctrough, Cmax, tmax, Kel, t1/2, CLss/F, Vss/F, Rae.
Overall Design—This was a randomized, Investigator and participant-blind. Sponsor-unblinded, placebo-controlled study designed to evaluate the safety, tolerability, PK, and PD of Compound I in healthy participants. The study consisted of multiple cohorts assessing ascending doses of Compound I.
Approximately 60 participants were enrolled into 5 cohorts. At each dose level/cohort, a total of 10 participants were randomized to receive 2 weeks of oral doses of Compound I (n=8) or placebo (n=2). In Cohort 3, 20 participants were randomized to receive multiple oral doses of Compound I QD (n=8), Compound I TID (n=8), placebo QD (n=2), or placebo TID (n=2).
The study started with a planned dose of 5 mg twice daily (BID). Escalation to the next higher cohort was dependent on safety and PK data from all participants in the previous cohorts and was based on data from at least 6 participants up to at least 48 hours after the last dose. In no instance did the dose escalation steps exceed 3-fold the prior dose level.

[1] = human, 5 mg, Cohort 1, 5 mg BID, Day 7
[2] = human, 5 mg, Cohort 1, 5 mg BID, Day 15
[3] = human, 15 mg, Cohort 2, 15 mg BID, Day 1
[4] = human, 15 mg, Cohort 2, 15 mg BID, Day 7
[5] = human, 15 mg, Cohort 2, 15 mg BID, Day 15
[6] = human, 25 mg, Cohort 4, 25 mg BID, Day 1
[7] = human, 25 mg, Cohort 4, 25 mg BID, Day 7
[8] = human, 25 mg, Cohort 4, 25 mg BID, Day 15
[9] = human, 30 mg, Cohort 3a, 30 mg QD, Day 1
[10] = human, 30 mg, Cohort 3a, 30 mg QD, Day 7
[11] = human, 30 mg, Cohort 3a, 30 mg QD, Day 15
[12] = human, 40 mg, Cohort 5, 40 mg BID, Day 1
[13] = human, 40 mg, Cohort 5, 40 mg BID, Day 7
[14] = human, 40 mg, Cohort 5, 40 mg BID, Day 15

C=CC(=O)N1C[C@H](Nc2ncnc3[nH]cc([C@H]4CC4(F)F)c23)CC[C@@H]1C [Compound I, 1-((2S,5R)-5-((5-((R)-2,2-difluorocyclopropyl)-7H-pyrrolo[2,3-d]pyrimidin-4-yl)amino)-2-methylpiperidin-1-yl)prop-2-en-1-one]
AUC(0-t) [1]: 32 ng·h/mL | Cmax (human, 5 mg, Cohort 1, 5 mg BID, Day 7, read-out: Geometric Mean Cmax): 13 ng/mL | Tmax [1]: 46.2 min | AUC(0-inf) [2]: 32 ng·h/mL | AUC(0-t) [2]: 32 ng·h/mL | Cmax (human, 5 mg, Cohort 1, 5 mg BID, Day 15, read-out: Geometric Mean Cmax): 12.5 ng/mL | Tmax [2]: 46.2 min | AUC(0-inf) [3]: 71 ng·h/mL | AUC(0-t) [3]: 71 ng·h/mL | Cmax (human, 15 mg, Cohort 2, 15 mg BID, Day 1, read-out: Geometric Mean Cmax): 28.8 ng/mL | Tmax [3]: 48.6 min | AUC(0-inf) [4]: 110 ng·h/mL | AUC(0-t) [4]: 109 ng·h/mL | Cmax (human, 15 mg, Cohort 2, 15 mg BID, Day 7, read-out: Geometric Mean Cmax): 42.5 ng/mL | Tmax [4]: 46.2 min | AUC(0-inf) [5]: 111 ng·h/mL | AUC(0-t) [5]: 110 ng·h/mL | Cmax (human, 15 mg, Cohort 2, 15 mg BID, Day 15, read-out: Geometric Mean Cmax): 38.9 ng/mL | Tmax [5]: 57.6 min | Cmax (human, 15 mg, Human 15 mg, read-out: Cmax): 38.9 ng/mL | AUC(0-inf) [6]: 175 ng·h/mL | AUC(0-t) [6]: 173 ng·h/mL | Cmax (human, 25 mg, Cohort 4, 25 mg BID, Day 1, read-out: Geometric Mean Cmax): 64.3 ng/mL | Tmax [6]: 50.4 min | AUC(0-inf) [7]: 265 ng·h/mL | AUC(0-t) [7]: 260 ng·h/mL | Cmax (human, 25 mg, Cohort 4, 25 mg BID, Day 7, read-out: Geometric Mean Cmax): 89.6 ng/mL | Tmax [7]: 48.6 min | AUC(0-inf) [8]: 245 ng·h/mL | AUC(0-t) [8]: 240 ng·h/mL | Cmax (human, 25 mg, Cohort 4, 25 mg BID, Day 15, read-out: Geometric Mean Cmax): 81.8 ng/mL | Tmax [8]: 42.6 min | Cmax (human, 25 mg, Human 25 mg, read-out: Cmax): 81.8 ng/mL | AUC(0-inf) [9]: 312 ng·h/mL | AUC(0-t) [9]: 308 ng·h/mL | Cmax (human, 30 mg, Cohort 3a, 30 mg QD, Day 1, read-out: Geometric Mean Cmax): 104 ng/mL | Tmax [9]: 40.8 min | AUC(0-inf) [10]: 375 ng·h/mL | AUC(0-t) [10]: 366 ng·h/mL | Cmax (human, 30 mg, Cohort 3a, 30 mg QD, Day 7, read-out: Geometric Mean Cmax): 124 ng/mL | Tmax [10]: 52.2 min | AUC(0-inf) [11]: 400 ng·h/mL | AUC(0-t) [11]: 392 ng·h/mL | Cmax (human, 30 mg, Cohort 3a, 30 mg QD, Day 15, read-out: Geometric Mean Cmax): 119 ng/mL | Tmax [11]: 57.6 min | Cmax (human, 30 mg, Human 30 mg, read-out: Cmax): 119 ng/mL | AUC(0-inf) [12]: 288 ng·h/mL | AUC(0-t) [12]: 285 ng·h/mL | Cmax (human, 40 mg, Cohort 5, 40 mg BID, Day 1, read-out: Geometric Mean Cmax): 102 ng/mL | Tmax [12]: 50.4 min | AUC(0-inf) [13]: 487 ng·h/mL | AUC(0-t) [13]: 480 ng·h/mL | Cmax (human, 40 mg, Cohort 5, 40 mg BID, Day 7, read-out: Geometric Mean Cmax): 158 ng/mL | Tmax [13]: 55.2 min | AUC(0-inf) [14]: 484 ng·h/mL | AUC(0-t) [14]: 472 ng·h/mL | Cmax (human, 40 mg, Cohort 5, 40 mg BID, Day 15, read-out: Geometric Mean Cmax): 138 ng/mL | Tmax [14]: 63 min | concentration at 6 h (human, 15 mg BID, steady-state, 6 hours post-dose): 4.3 ng/mL | concentration at 8 h (human, 25 mg BID, steady-state, 8 hours post-dose): 5.7 ng/mL | concentration at 11.5 h (human, 30 mg QD, steady-state, 11.5 hours post-dose): ~4 ng/mL | AUC (Human 15 mg): 110 ng·h/mL | AUC (Human 25 mg): 240 ng·h/mL | AUC (Human 30 mg): 392 ng·h/mL
